Laboratory results: the NIST ThermoML archive (doi:10.1016/j.jct.2005.03.006)
± gives the expanded uncertainty stated by the source.

Test: wn = mass fraction of the nth substance listed
Conditions: Liquid, Buoyancy - hydrostatic balance

c1ccccc1 [benzene] + CO
mass density [kg/m3]
Conditions	100 kPa	5000 kPa	9900 kPa	19700 kPa	29500 kPa	39300 kPa	49100 kPa	58900 kPa
287.65 K, w2 = 0.5	840.5 ± 10	844.4 ± 10	847.9 ± 10	855.8 ± 10	863 ± 10	869.5 ± 10	875.2 ± 10	881 ± 10
291.15 K, w2 = 0.25	857.7 ± 10	862 ± 10	866.1 ± 10	873.8 ± 10	880.6 ± 10	887.3 ± 10	893.2 ± 10	899.1 ± 10
292.65 K, w2 = 0.75	815.2 ± 10	819.9 ± 10	824.2 ± 10	832.1 ± 10	839.2 ± 10	846.4 ± 10	852.5 ± 10	858.7 ± 10
297.35 K, w2 = 0.5	830.9 ± 10	835.6 ± 10	839.9 ± 10	847.7 ± 10	855 ± 10	862.1 ± 10	868 ± 10	874 ± 10
313.66 K, w2 = 0.25	835 ± 10	840.1 ± 10	844.8 ± 10	852.9 ± 10	860.8 ± 10	868.4 ± 10	875.1 ± 10	881 ± 10
314.15 K, w2 = 0.75	795.6 ± 10	800.3 ± 10	804.7 ± 10	813 ± 10	821.1 ± 10	828.8 ± 10	835.9 ± 10	–
322.15 K, w2 = 0.5	806.5 ± 10	811.8 ± 10	817 ± 10	825.3 ± 10	833.4 ± 10	841.4 ± 10	848.2 ± 10	855.1 ± 10
337.37 K, w2 = 0.25	–	816.2 ± 10	822.1 ± 10	831 ± 10	840 ± 10	848.3 ± 10	856 ± 10	862.7 ± 10
338.35 K, w2 = 0.75	–	776.6 ± 10	781.6 ± 10	791 ± 10	800.2 ± 10	809 ± 10	817.1 ± 10	823.9 ± 10
341.35 K, w2 = 0.5	–	791.4 ± 10	797.7 ± 10	807.3 ± 10	816.2 ± 10	825.1 ± 10	832.9 ± 10	840 ± 10
356.15 K, w2 = 0.5	–	775.2 ± 10	781.8 ± 10	792 ± 10	802.8 ± 10	811.7 ± 10	819.8 ± 10	827.6 ± 10
361.64 K, w2 = 0.25	–	789.2 ± 10	796.5 ± 10	806.8 ± 10	817.1 ± 10	826.9 ± 10	835 ± 10	842.7 ± 10
361.65 K, w2 = 0.75	–	750.9 ± 10	757 ± 10	767.9 ± 10	778.4 ± 10	788.1 ± 10	797 ± 10	804.9 ± 10
376.65 K, w2 = 0.5	–	750.9 ± 10	758.2 ± 10	770.8 ± 10	784 ± 10	793.2 ± 10	801.8 ± 10	–
383.15 K, w2 = 0.75	–	724.9 ± 10	732.5 ± 10	745 ± 10	757.4 ± 10	768.2 ± 10	777.8 ± 10	786.9 ± 10
383.16 K, w2 = 0.25	–	764.1 ± 10	772.6 ± 10	784.4 ± 10	796.3 ± 10	807.6 ± 10	815.9 ± 10	824.8 ± 10
402.15 K, w2 = 0.5	–	718.4 ± 10	726.6 ± 10	742.7 ± 10	757.7 ± 10	769 ± 10	778.9 ± 10	788.6 ± 10
406.65 K, w2 = 0.75	–	693.4 ± 10	703.3 ± 10	718.9 ± 10	733.3 ± 10	745 ± 10	755.9 ± 10	766.2 ± 10
407.66 K, w2 = 0.25	–	732 ± 10	741.5 ± 10	757.6 ± 10	771.3 ± 10	784.6 ± 10	793.3 ± 10	803.2 ± 10
428.15 K, w2 = 0.5	–	678.8 ± 10	689.5 ± 10	710.6 ± 10	728.7 ± 10	742.1 ± 10	753.2 ± 10	764.7 ± 10
429.26 K, w2 = 0.25	–	699.7 ± 10	710.6 ± 10	731.1 ± 10	748.2 ± 10	762.9 ± 10	773 ± 10	783.8 ± 10
431.35 K, w2 = 0.75	–	656.6 ± 10	667.9 ± 10	689.5 ± 10	706.7 ± 10	720 ± 10	732.5 ± 10	744.1 ± 10
453.2 K, w2 = 0.25	–	659.6 ± 10	673.3 ± 10	699.7 ± 10	720.8 ± 10	736.9 ± 10	748.8 ± 10	760.9 ± 10
453.65 K, w2 = 0.5	–	634 ± 10	649.1 ± 10	676.5 ± 10	697.6 ± 10	714 ± 10	727 ± 10	739.3 ± 10
458.5 K, w2 = 0.75	–	605.4 ± 10	624.7 ± 10	653.6 ± 10	674.8 ± 10	690.2 ± 10	705 ± 10	718.3 ± 10
475.26 K, w2 = 0.25	–	616.4 ± 10	639.6 ± 10	669.8 ± 10	694.3 ± 10	710.8 ± 10	725.7 ± 10	739.4 ± 10
477.35 K, w2 = 0.75	–	558.2 ± 10	590.9 ± 10	628.5 ± 10	652.3 ± 10	669.8 ± 10	686.2 ± 10	699.9 ± 10
496.65 K, w2 = 0.75	–	483.6 ± 10	549.1 ± 10	601.8 ± 10	628.5 ± 10	647.8 ± 10	665.6 ± 10	680.8 ± 10
497.15 K, w2 = 0.5	–	520.7 ± 10	570 ± 10	617.6 ± 10	643.1 ± 10	661.9 ± 10	680.8 ± 10	694.6 ± 10
497.17 K, w2 = 0.25	–	566.6 ± 10	598.9 ± 10	639 ± 10	664.5 ± 10	684.2 ± 10	701.6 ± 10	717 ± 10
